Source: patent publication US20230373934A1, “ANDROGEN RECEPTOR MODULATORS AND METHODS FOR THEIR USE” (ESSA Pharma, Inc., priority 2022, published 2023)

What was measured:
[1] = Microsomal stability assay, liver microsome half-life (human); assay type: in vitro ADME; settings: pH 7.4; human liver microsomes 0.5 mg/mL + NADPH, 1 μM compound, 37° C; read-out: Liver microsome + NADPH T½ (min) Human
From the text: Microsomal Stability Assay: Microsomal stability assay is a widely used in vitro model to characterize the metabolic conversion by phase I enzymes, such as cytochrome P450 (CYP) enzymes. Since metabolism is known to be highly variable in different species, microsomal stability assay is commonly run in multiple species. Metabolic stability of testing compound can be evaluated using human, rat, mouse, or other animal liver or intestine microsomes to predict intrinsic clearance.
The assay was carried out in 96-well microtiter plates at 37° C. Reaction mixtures (25 μL) contained a final concentration of 1 μM test compound, 0.5 mg/mL liver microsomes protein, and 1 mM NADPH and/or 1 mM UDPGA (with alamethicin) in 100 mM potassium phosphate, pH 7.4 buffer with 3 mM MgCl2. The incubation was done with N=1, but duplicate incubation at each time point can be prepared if necessary. At each of the time points (for example, 0, 15, 30, and 60 minutes), 150 μL of quench solution (100% acetonitrile with 0.1% formic acid) with internal standard was transferred to each well. Besides the zero minute controls, mixtures containing the same components except the NADPH can also be prepared as the negative control. Verapamil was included as a positive control to verify assay performance. Plates were sealed, vortexed, and centrifuged at 4° C. for 15 minutes at 4000 rpm. The supernatant is transferred to fresh plates for LC/MS/MS analysis.
Summarized conditions: [Compound]=1 μM, [LM]=0.5 mg/mL, [NADPH]=1 mM and/or [UDPGA]=1 mM, Buffer=100 mM Potassium Phosphate, pH 7.4 with 3 mM MgCl2, Time=0, 15, 30, and 60 min, and Temperature=37° C.
All samples were analyzed on LC/MS/MS using an AB Sciex API 4000 instrument, coupled to a Shimadzu LC-20AD LC Pump system. Analytical samples were separated using a Waters Atlantis T3 dC18 reverse phase HPLC column (20 mm×2.1 mm) at a flow rate of 0.5 mL/min. The mobile phase consisted of 0.1% formic acid in water (solvent A) and 0.1% formic acid in 100% acetonitrile (solvent B).
The extent of metabolism is calculated as the disappearance of the test compound, compared to the 0-min time incubation. Initial rates are calculated for the compound concentration and used to determine half-life (t1/2).

androgen receptor (AR) = molecular target: T1, androgen receptor (AR) (Homo sapiens, UniProt P10275); assay: Androgen-induced PSA-luciferase assay, Luciferase Assay B (cells stably expressing ARR2PB or PSA-firefly luciferase reporter, 384-well); assay type: cell-based; settings: Luciferase Assay B (Compounds A186-A219 and A221-A245); stable luciferase reporter cells, 1 h pretreatment, R1881 24 h, serum-free; read-out: PSA-Luc IC50 Range
T1 sequence (P10275 1-920 T878A): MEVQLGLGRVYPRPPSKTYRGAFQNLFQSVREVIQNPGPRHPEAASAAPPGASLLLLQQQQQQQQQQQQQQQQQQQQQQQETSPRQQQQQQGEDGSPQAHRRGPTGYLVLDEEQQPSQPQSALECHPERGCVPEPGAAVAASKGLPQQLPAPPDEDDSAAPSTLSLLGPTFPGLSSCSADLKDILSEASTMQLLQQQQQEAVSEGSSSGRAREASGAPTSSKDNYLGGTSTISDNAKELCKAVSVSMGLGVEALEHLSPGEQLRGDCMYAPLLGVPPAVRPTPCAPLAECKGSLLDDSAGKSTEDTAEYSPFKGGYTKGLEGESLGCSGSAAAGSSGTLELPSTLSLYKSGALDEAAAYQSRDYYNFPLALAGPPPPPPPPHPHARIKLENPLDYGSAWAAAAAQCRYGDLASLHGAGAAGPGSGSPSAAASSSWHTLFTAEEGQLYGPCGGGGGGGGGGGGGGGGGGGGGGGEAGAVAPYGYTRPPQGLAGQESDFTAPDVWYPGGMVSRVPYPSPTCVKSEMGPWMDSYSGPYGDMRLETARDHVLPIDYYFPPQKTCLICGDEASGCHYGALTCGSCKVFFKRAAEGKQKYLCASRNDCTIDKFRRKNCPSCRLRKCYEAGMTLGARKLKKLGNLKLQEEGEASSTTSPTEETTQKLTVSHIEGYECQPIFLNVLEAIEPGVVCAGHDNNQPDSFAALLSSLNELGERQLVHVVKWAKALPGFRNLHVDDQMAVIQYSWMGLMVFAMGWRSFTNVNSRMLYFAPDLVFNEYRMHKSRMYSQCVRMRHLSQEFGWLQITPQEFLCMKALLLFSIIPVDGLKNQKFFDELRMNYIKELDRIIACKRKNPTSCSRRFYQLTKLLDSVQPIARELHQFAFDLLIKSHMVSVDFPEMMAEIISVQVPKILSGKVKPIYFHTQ
Procedure: Luciferase Assay B: Cells stably expressing probasin promoter (ARR2PB) or human prostate-specific antigen (PSA)-firefly luciferase reporter were plated in poly-D-lysine-coated 384-well plates. 48 h after plating, cells were pretreated with vehicle or compounds for 1 h before adding R1881 under serum-free and phenol red-free conditions and then further incubated for 24 h. R1881 was added only for LNCaP cells. Firefly luciferase activities were determined by EnVision plate reader (Perkinemer) using the Steady-Glo Luciferase Reporter Assay System (Promega). Values were normalized to protein content. GraphPad Prism graphing software was used to calculate IC50 values. Luciferase Assay B was run for Compounds A186-A219 and A221-A245 in Table 2.
Statistical analyses were performed using GraphPad Prism (Version 6.01 for Windows; La Jolla, CA, USA). Comparisons between treatment and control groups were compared using Two-Way ANOVA with post-hoc Dunnett's and Tukey's tests. Differences were considered statistically significant at P values less than 0.05.

half-life at 1 μM [1] [min]	IC50 (androgen receptor (AR)) [nM]	SMILES
–	> 2000	CS(=O)(=O)Nc1cc(=O)n2cc(-c3ccc(Oc4cc(Cl)c(OC5CC5)c(C#N)c4)cc3)ccc2n1 [Compound A211]
–	> 2000	N#Cc1cc(Oc2ccc(-c3ccc4nc(N)cnc4c3)cc2)cc(Cl)c1OC1CC1 [Compound A194]
–	500 to 2000	CS(=O)(=O)NCc1cnc2cc(-c3ccc(Oc4cc(Cl)c(OC5CC5)c(C#N)c4)cc3)ccc2n1 [Compound A207, N-((6-(4-(3-chloro-5-cyano-4-cyclopropoxyphenoxy)phenyl)quinoxalin-2-yl)methyl)methanesulfonamide]
–	> 2000	CS(=O)(=O)Nc1cnc2cc(-c3ccc(Oc4cnc(OC5CC5)c(C#N)c4)cc3)ccc2n1 [Compound A217]
–	500 to 2000	CS(=O)(=O)Nc1cc2cn(Cc3ccc(Oc4cc(Cl)c(OC5CC5)c(C#N)c4)cc3)nc2cn1 [Compound A227]
–	500 to 2000	CS(=O)(=O)Nc1cc2cnn(Cc3ccc(Oc4cc(Cl)c(OC5CC5)c(C#N)c4)cc3)c2cn1 [Compound A225]
–	< 500	CS(=O)(=O)Nc1cc2ccc(-c3ccc(Oc4cc(Cl)c(OC5CC5)c(C#N)c4)cc3)cc2nn1 [Compound A192]
–	500 to 2000	Cn1nc(NS(C)(=O)=O)c2cc(-c3ccc(Oc4cc(Cl)c(OC5CC5)c(C#N)c4)cc3)ccc21 [Compound A210]
–	500 to 2000	CS(=O)(=O)NCc1ccc(-c2ccc(Oc3cc(Cl)c(OC4CC4)c(C#N)c3)cc2)nn1 [Compound A214]
–	500 to 2000	CS(=O)(=O)NCc1ccc(-c2ccc(Oc3cc(Cl)c(OC4CC4)c(C#N)c3)cc2)cn1 [Compound A212]
–	500 to 2000	CS(=O)(=O)Nc1cnc2cc(-c3ccc(Nc4cc(Cl)c(OC5CC5)c(C#N)c4)cc3)ccc2n1 [Compound A226]
–	500 to 2000	CS(=O)(=O)Nc1ccc2nc(-c3ccc(Oc4cc(Cl)c(OC5CC5)c(C#N)c4)cc3)cnc2n1 [Compound A219]
–	500 to 2000	CN(c1cnc2cc(-c3ccc(Oc4cc(Cl)c(OC5CC5)c(C#N)c4)cc3)ccc2n1)S(C)(=O)=O [Compound A195]
–	500 to 2000	CS(=O)(=O)Nc1ncc(-c2ccc(Oc3cc(Cl)c(OC4CC4)c(C#N)c3)cc2)cn1 [Compound A196]
–	500 to 2000	CCCOc1c(Cl)cc(Oc2ccc(-c3ccc4nc(NS(C)(=O)=O)cnc4c3)cc2)cc1C#N [Compound A188]
–	> 2000	Cn1nc(NS(C)(=O)=O)c2ccc(-c3ccc(Oc4cc(Cl)c(OC5CC5)c(C#N)c4)cc3)cc21 [Compound A209]

The next lines start with the molecule.

SMILES	half-life at 1 μM [1] [min]	IC50 (androgen receptor (AR)) [nM]
CC(C)(c1ccc(OC[C@H](O)CNS(C)(=O)=O)cc1)c1cc(Cl)c(OC[C@H](O)CCl)c(Cl)c1 [X, reference compound]	> 120	–
CC(C)(c1ccc(-c2cnc(NS(C)(=O)=O)nc2)cc1)c1cc(Cl)c(OC2CC2)c(C#N)c1 [Compound A197]	–	500 to 2000
CC(C)(c1ccc(OCc2ccnc(N3CCOCC3)n2)cc1)c1cc(Cl)c(OC2CC2)c(C#N)c1 [Compound A201, 3-chloro-2-cyclopropoxy-5-(2-(4-((2-morpholinopyrimidin-4-yl)methoxy)phenyl)propan-2-yl)benzonitrile]	–	500 to 2000
CS(=O)(=O)Nc1cncc(N2CCN(c3ccc(Oc4cc(Cl)c(OC5CC5)c(C#N)c4)cc3)CC2)n1 [Compound A229]	–	> 2000
CS(=O)(=O)Nc1nccc(N2CCN(c3ccc(Oc4cc(Cl)c(OC5CC5)c(C#N)c4)cc3)CC2)n1 [Compound A230]	–	< 500
CS(=O)(=O)Nc1cnc2cc(-c3ccc(Oc4cc(Cl)c(OCCC(F)(F)F)c(C#N)c4)cc3)ccc2n1 [Compound A189]	–	500 to 2000
CS(=O)(=O)Nc1cnc2cc(-c3ccc(N(CC(F)(F)F)c4cc(Cl)c(N5CCOCC5)c(C#N)c4)cc3)ccc2n1 [Compound A224, N-(6-(4-((3-chloro-5-cyano-4-morpholinophenyl)(2,2,2-trifluoroethyl)amino)phenyl)quinoxalin-2-yl)methanesulfonamide]	–	< 500
CC(=O)N1CCN(c2nccc(COc3ccc(C(C)(C)c4cc(Cl)c(OC5CC5)c(C#N)c4)cc3)n2)CC1 [Compound A244]	–	< 500
CS(=O)(=O)NCc1cnc(-c2ccc(Oc3cc(Cl)c(OC4CC4)c(C#N)c3)cc2)cn1 [Compound A213]	–	500 to 2000
CS(=O)(=O)Nc1cnc2cc(-c3ccc(N(CC(F)(F)F)c4cnc(N5CCOCC5)c(C#N)c4)cc3)ccc2n1 [Compound A233]	–	500 to 2000
CS(=O)(=O)NC12CC(COc3ccc(N(CC(F)(F)F)c4cnc(OC5CC5)c(C#N)c4)cc3)(C1)C2 [Compound A234]	–	500 to 2000
CS(=O)(=O)NC12CC(COc3ccc(Oc4cc(Cl)c(OC5CC5)c(C#N)c4)cc3)(C1)C2 [Compound A228, N-(3-((4-(3-chloro-5-cyano-4-cyclopropoxyphenoxy)phenoxy)methyl)bicyclo[1.1.1]pentan-1-yl)methanesulfonamide]	–	> 2000
CN(c1cnc2cc(-c3ccc(N(CC(F)(F)F)c4cnc(OC5CC5)c(C#N)c4)cc3)ccc2n1)S(C)(=O)=O [Compound A239]	–	< 500
CS(=O)(=O)Nc1nccc(COc2ccc(N(CC(F)(F)F)c3cc(Cl)c(OCCCl)c(C#N)c3)cc2)n1 [Compound A238]	–	< 500
CC(C)(c1ccc(OCc2ccnc(N3CCNCC3)n2)cc1)c1cc(Cl)c(OC2CC2)c(C#N)c1 [Compound A243]	–	500 to 2000
CN(c1ccc(OCc2ccnc(NS(C)(=O)=O)n2)cc1)c1cc(Cl)c(OC2CC2)c(C#N)c1 [Compound A237]	–	500 to 2000
CS(=O)(=O)Nc1cnc2cc(-c3ccc(N(CC(F)F)c4cc(Cl)c(OC5CC5)c(C#N)c4)cc3)ccc2n1 [Compound A222]	–	< 500
CS(=O)(=O)Nc1cnc2cc(-c3ccc(Oc4cnc(OC5CC5)c(Cl)c4)cc3)ccc2n1 [Compound A218]	–	500 to 2000
N#Cc1cc(Oc2ccc(-c3ccc4nc(N5CCNCC5)ncc4c3)cc2)cc(Cl)c1OC1CC1 [Compound A241]	–	> 2000
